The test system of experiment [1] is Mouse Peritonitis Induced by Ragweed Pollen. As to the kind of experiment: Mouse peritonitis induced by ragweed pollen. The format is in vivo, BLAB/c mouse. The following applies: 400 mg/kg intravenously, totally 5 times; 48 hours after induction. As for the experimental part:
Ragweed pollen extract 1:100 (TORII PHARMACEUTICAL) was diluted by 10-fold with physiological saline, and the resulting solution was used as an antigen for sensitization. This antigen solution was subcutaneously administered to each BLAB/c mouse (female, 6 weeks old, JAPAN CHARLES RIVER) in an amount of 100 µl each on DAY-0 and DAY-1, and 200 µl each on DAY-6, DAY-8 and DAY-14 to obtain sensitized mice, DAY-0 being the day of the initial sensitization. On DAY-20, 200 µl of the antigen solution was intraperitoneally administered to induce peritonitis. After 48 hours from the induction, each mouse was sacrificed by bleeding to death, and 3 ml of heparin-containing PBS(-) was intraperitoneally injected. Celiotomy was performed and washing solution of the abdominal cavity was recovered. The leukocytes contained in the recovered washing solution were subjected to site spin and a smear specimen was prepared. After staining the specimen by May-Giemsa staining method, the leukocytes were grouped and counted under microscope to determine the number of eosinophils. Compound No. 140 used as the test compound was dissolved in physiological saline and the solution was intravenously administered totally 5 times, i.e., at 16 hours before induction, at the time of induction, at 8 hours, 24 hours and 32 hours after induction, at a dose of 400 mg/kg per each time. […]

The subject of experiment [2] is Auricular Edema Model. Kind of experiment: Auricular edema model (IgE anti-DNP passive sensitization, DNFB induction). The format is in vivo, BLAB/c mouse. As for the experimental part:
To each BLAB/c mouse (female, 7 weeks old, JAPAN CHARLES RIVER), mouse IgE anti-DNP antibody (5 mg/kg, SEIKAGAKU CORPORATION) was intravenously administered to passively sensitize the mouse. Twenty four hours later, 20 µl of 0.38% 2,4- dinitrofluorobenzene (DNFB, Aldrich) dissolved in acetone:olive oil (4:1) was applied to the auricle of the sensitized mouse to induce inflammation. The thickness of the auricle was measured until 24 hours after the induction with Digimatic Indicator (Mitutoyo) and the ear swelling rate was calculated according to the following equation: Ear Swelling Rate (%) = (A - B)/B x 100 [formula] • A: Thickness of right auricle at 24 hours after induction • B: Thickness of right auricle before induction
Twenty four hours after the induction, the auricle was cut off and fixed with formalin. After the fixation, continuous sections of the auricle were prepared and stained by Luna staining. The number of eosinophils in each section was counted and the total of them was defined as the number of eosinophils accumulated in the auricle.
Compound No. 140 used as the test compound was dissolved in physiological saline and the solution was intravenously administered totally 3 times, i.e., at the time of sensitization, at 8 hours and 24 hours after sensitization, at a dose of 400 mg/kg per each time. Further, to examine the effect of the compound when applied to the auricle, the compound was dissolved in ethanol, and the solution was applied to the auricle totally twice, i.e., at 8 hours after sensitization and at 1 hour before the induction, at a dose of 0.3 mg/ear. To the background group and the control group, physiological saline was intravenously administered and ethanol was applied, respectively. The experiment was carried out using 4 to 6 mice in each group. The results are shown in terms of mean ± standard error.
Twenty four hours after the induction, the auricle was cut off and fixed with formalin. After the fixation, continuous sections of the auricle were prepared and stained by Luna staining. The number of eosinophils in each section was counted. Compound No. 143 used as the test compound was dissolved in physiological saline and the solution was topically or systemically administered totally 3 times, i.e., at the time of sensitization, at 8 hours and 24 hours after sensitization. The experiment was carried out using 4 to 6 mice in each group. The results are shown in terms of mean ± standard error.

As to `CC(C)(C)CC(=O)N[C@@H](CSSC[C@H](NC(=O)CC(C)(C)C)C(=O)O)C(=O)O` [Example 140, 3-((2(R)-carboxy-2(R)-(3,3-dimethylbutanoylamino)ethyl)disulfanyl)-2(R)-(3,3-dimethylbutanoylamino)propionic acid], in experiment [1], the “inhibition rate of accumulation of leukocytes, especially eosinophils, to abdominal cavity” value turned out to be 31.1%. For the same compound, the “swelling of ear induced by application of the antigen” value in experiment [2] (Compound No. 140: 400 mg/kg intravenously 3 times or 0.3 mg/ear applied to auricle) is listed as “inhibited”. Moreover, in experiment [2] (Compound No. 140: 400 mg/kg intravenously 3 times or 0.3 mg/ear applied to auricle, Fig. 1, 400 mg/kg), the “accumulation of eosinophils to auricle induced by application of the antigen” value is recorded as “inhibits”. Moreover, in experiment [2] (applied to auricle, 0.3 mg/ear, twice, 24 hours after induction), the “Ear Swelling Rate (%)” value stood at 26.12%. Besides, the “Inhibition Rate (%)” value in experiment [2] (swelling of ear, applied to auricle, 0.3 mg/ear, twice) was found to be 40.3%.

For the origin of these results see EP1209147A1, “CARBOXYLIC ACID DERIVATIVES AND ADHESION MOLECULE INHIBITORS CONTAINING THE SAME AS THE ACTIVE INGREDIENT” (TORAY INDUSTRIES, INC., priority 1999, dated 2001).
